Test results from US12187705B2, “Heteroaryl-triazole and heteroaryl-tetrazole compounds as pesticides” (Bayer Aktiengesellschaft, priority 2018, dated 2025).

Columns and labels:
Format in all cases: in vivo
Ctenocephalides felis [1] = experiment: Ctenocephalides felis in-vitro contact test adult cat flea; details: 5 μg/cm^2 (=500 g/ha), after 48 hours; for pest or weed control at 5 µg/cm2, 5 µg/cm2: Ctenocephalides felis, read-out: efficacy (fleas dead or moribund)
In short: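 Compound in acetone was coated on glass tube walls, giving 5 μg/cm^2 at 900 ppm. 5-10 adult cat fleas were held at room temperature for 48 h, then heat-challenged at 45-50° C. Fleas immotile or uncoordinated were scored dead/moribund, expressed as % efficacy.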

Myzus persicae [2] = experiment: Myzus persicae oral test; details: 120 h
In short: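 Feeding test: compound diluted in water was combined with IPL41 insect medium (33%+15% sugar) under a parafilm seal. A mixed population of green peach aphids fed through the membrane. Mortality (%) was scored after 5 days.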

Rhipicephalus sanguineus = Rhipicephalus sanguineus in-vitro contact test with adult brown dog ticks; details: 5 μg/cm^2 (=500 g/ha), after 48 hours; for pest or weed control at 5 µg/cm2, 5 µg/cm2: Rhipicephalus sanguineus, read-out: efficacy (ticks dead or moribund)
Procedure: Rhipicephalus sanguineus—In-Vitro Contact Test with Adult Brown Dog Ticks
9 mg compound is solved in 1 ml acetone and diluted with acetone to the desired concentration. 250 μl of the test solution is filled in 25 ml glass test tubes and homogeneously distributed on the inner walls by rotation and tilting on a shaking device (2 h at 30 rpm). With a compound concentration of 900 ppm, an inner surface of 44.7 cm^2 and a homogeneous distribution, a dose of 5 μg/cm^2 is achieved.
After the solvent has evaporated, each test tube is filled with 5-10 adult brown dog ticks (Rhipicephalus sanguineus), closed with a perforated lid and incubated in a lying position at room temperature and relative humidity. After 48 hours efficacy is determined. The ticks are patted on the ground of the tubes and are incubated on a heating plate at 45-50° C. for at most 5 minutes. Immotile or uncoordinated moving ticks, which are not able to escape the heat by climbing upwards, are marked as dead or moribund.
An efficacy of 100% means all ticks are dead or moribund; 0% means no ticks are dead or moribund.

Boophilus microplus = Boophilus microplus injection test; details: 20 μg/animal, egg deposition after 7 days; for pest or weed control at 0.02 mg: Rhipicephalus microplus, 168 h, read-out: efficacy (infertile eggs)
In short: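 Engorged adult female ticks, five per dose, received 1 μl of compound in DMSO injected into the abdomen and were kept in a climate chamber. Fertile egg deposition was checked after 7 days, with eggs of unclear fertility held until hatching at about 42 days. Efficacy 100% = all eggs infertile, 0% = all fertile.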

Ctenocephalides felis [3] = experiment: Ctenocephalides felis oral test; details: Ctenocephalides felis, in Bos taurus, po, 48 h
In short: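 About 20 adult unfed fleas fed through parafilm on cattle blood containing compound (DMSO concentrate diluted in blood); blood held at 37° C., fleas at room temperature. Mortality in % scored after 2 days (100% = all killed).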

[4] = system: Culex quinquefasciatus strain P00; experiment: Culex quinquefasciatus test (CULXFA surface treatment & contact assay); details: 24 hours after contact, read-out: efficacy (mortality); for mortality at 20 mg/m2: surface concentration 20 mg/m^2, 30 minutes exposure; for mortality at 4 mg/m2: surface concentration 4 mg/m^2, 30 minutes exposure
In short: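 Compound dissolved in acetone (2 mg/ml) with 2000 ppm rapeseed oil methyl ester, applied to glazed tile and dried. Adult strain P00 mosquitoes exposed to the surface for 30 minutes. Percent mortality scored 24 hours after contact.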

[5] = system: Aedes aegypti strain MONHEIM; experiment: Aedes aegypti test (AEDSAE surface treatment & contact assay); details: 24 hours after contact, read-out: efficacy (mortality); for mortality at 4 mg/m2: surface concentration 4 mg/m^2, 30 minutes exposure; for mortality at 20 mg/m2: surface concentration 20 mg/m^2, 30 minutes exposure
In short: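 Compound dissolved in acetone (2 mg/ml) with 2000 ppm rapeseed oil methyl ester and dried onto a glazed tile. Adult mosquitoes held on the treated surface for 30 minutes exposure. Percent mortality scored 24 hours after contact.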

[6] = system: Anopheles funestus strain FUMOZ-R; experiment: Anopheles funestus test (ANPHFU surface treatment & contact assay); details: 24 hours after contact, read-out: efficacy (mortality); for mortality at 4 mg/m2: surface concentration 4 mg/m^2, 30 minutes exposure; for mortality at 20 mg/m2: surface concentration 20 mg/m^2, 30 minutes exposure
In short: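 Compound dissolved in acetone (2 mg/ml) with 2000 ppm rapeseed oil methyl ester, dried onto glazed tile; adult Anopheles funestus FUMOZ-R exposed for 30 minutes. Percent mortality scored 24 hours after contact.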

Nilaparvata lugens = Nilaparvata lugens spray test; details: for mortality at 500 g/ha: Nilaparvata lugens, in Oryza sativa, 96 h
In short: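 Rice plants sprayed with compound diluted in water containing 1000 ppm emulsifier, then infested with brown planthopper. Mortality (%) scored after 4 days, 100% meaning all insects killed.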

Nezara viridula = Nezara viridula spray test; details: in Hordeum vulgare, 96 h
In short: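 Barley plants infested with stink bug larvae were sprayed with compound diluted in water containing 1000 ppm emulsifier. Mortality (%) was scored after 4 days, 100% meaning all bugs killed.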

Phaedon cochleariae = Phaedon cochleariae spray test; details: foliar, 168 h, Chinese cabbage leaf disks, after 7 days
Procedure: Phaedon cochleariae—Spray Test
(§1) To produce a suitable preparation of active compound, 1 part by weight of active compound is mixed with the stated amount of solvents and is diluted with water, containing an emulsifier concentration of 1000 ppm, to the desired concentration. Further test concentrations are prepared by dilution with emulsifier containing water.
Chinese cabbage (Brassica pekinensis) leaf disks are sprayed with a preparation of the active ingredient of the desired concentration. Once dry, the leaf disks are infested with mustard beetle larvae (Phaedon cochleariae).
After 7 days mortality in % is determined. 100% means all beetle larvae have been killed and 0% means none of the beetle larvae have been killed.

Diabrotica balteata = Diabrotica balteata spray test; details: 160 μg/well, wheat seeds, after 7 days; for pest or weed control at 160 µg/disc, 160 µg/well: Diabrotica balteata, 168 h, read-out: efficacy (seedlings grown)
In short: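 Wheat seeds germinated 1 day on agar were sprayed with compound diluted in water with 1000 ppm emulsifier, then infested with 10-20 Diabrotica balteata larvae. Efficacy in % scored after 7 days: 100% = seedlings grown as untreated, uninfected control; 0% = no seedlings grown.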

Spodoptera frugiperda = Spodoptera frugiperda spray test; details: in Zea mays, 168 h
In short: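 Maize leaf sections sprayed with compound diluted in water with 1000 ppm emulsifier, then infested with larvae once dry. Mortality (%) scored after 7 days; 100% = all caterpillars killed.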

[7] = system: Musca domestica strain WHO-N; experiment: Musca domestica test (MUSCDO surface treatment & contact assay); details: 24 hours after contact, read-out: efficacy (mortality); for mortality at 20 mg/m2: surface concentration 20 mg/m^2, 30 minutes exposure
Procedure: Musca domestica Test (MUSCDO Surface Treatment & Contact Assay)
Solvent: Aceton+2000 ppm rapeseed oil methyl ester (RME)
In order to produce a sufficient, active ingredient containing solution it is necessary to solve the test-compound in the solvent-mix (Acetone at 2 mg/ml/RME 2000 ppm). This solution is pipetted onto a glazed tile and after evaporation of the Acetone, adult flies of the species Musca domestica strain WHO-N are placed onto the dried surface. The exposure time is 30 minutes.
Mortality in percent (%) is determined 24 hours after contact to the treated surface. 100% mortality means that all test-insects are dead, whereas 0% means that not a single insect died.

Myzus persicae [8] = experiment: Myzus persicae spray test; details: in Brassica rapa, foliar, 120 h
Procedure: Myzus persicae—Spray Test
as §1
Chinese cabbage (Brassica pekinensis) leaf disks infected with all instars of the green peach aphid (Myzus persicae), are sprayed with a preparation of the active ingredient of the desired concentration.
After 5 days mortality in % is determined. 100% means all aphids have been killed and 0% means none of the aphids have been killed.

| Structure (SMILES) | pest or weed control at 5 µg/cm2, 5 µg/cm2 (Ctenocephalides felis [1]) | mortality at 20 ppm (Myzus persicae [2]) | pest or weed control at 5 µg/cm2, 5 µg/cm2 (Rhipicephalus sanguineus) | pest or weed control at 0.02 mg (Boophilus microplus) | mortality at 100 ppm (Ctenocephalides felis [3]) | mortality at 20 mg/m2 [4] | mortality at 4 mg/m2 [5] | mortality at 20 mg/m2 [5] | mortality at 500 g/ha (Nilaparvata lugens) | mortality at 500 g/ha (Nezara viridula) | mortality at 500 g/ha (Phaedon cochleariae) | pest or weed control at 160 µg/disc, 160 µg/well (Diabrotica balteata) | mortality at 500 g/ha (Spodoptera frugiperda) | mortality at 20 mg/m2 [7] | also measured |
| --- | --- | --- | --- | --- | --- | --- | --- | --- | --- | --- | --- | --- | --- | --- | --- |
| CC(c1ncnn1-c1ncccn1)N(CC1CC1)C(=O)c1cccc(S(C)(=O)=O)c1 (stereo not shown) [Example I-001] | 80% | 100% | 100% | 100% | 100% | 80 to 100% | 80 to 100% | 90 to 100% | 100% | 100% | 100% | – | – | – | mortality at 4 mg/m2 [6]: 85 to 100%; mortality at 20 mg/m2 [6]: 85 to 100% |
| CC(c1ncnn1-c1ncccn1)N(CC1CC1)C(=O)c1cncc(S(C)(=O)=O)c1 (stereo not shown) [Example I-002] | 100% | – | 80% | 100% | 100% | – | – | – | – | 100% | – | – | – | – | – |
| CC(c1ncnn1-c1ncccn1)N(CC1CC1)C(=O)c1cc(Cl)cc(S(C)(=O)=O)c1 (stereo not shown) [Example I-003, 3-chloro-N-(cyclopropylmethyl)-5-(methylsulfonyl)-N-{1-[1-(pyrimidin-2-yl)-1H-1,2,4-triazol-5-yl]ethyl}benzamide] | 100% | 100% | 100% | 100% | 100% | – | – | – | 100% | 100% | 100% | 100% | – | – | mortality at 4 ppm (Myzus persicae [2]): 90% |
| CC(c1ncnn1-c1ncccn1)N(CC1CC1)C(=O)c1cc(C(F)(F)F)cc(Cl)c1F (stereo not shown) [Example I-004] | – | 100% | 80% | – | 100% | – | – | – | 100% | 100% | 100% | 100% | 83% | – | – |
| CC(c1ncnn1-c1ncccn1)N(CC1CC1)C(=O)c1cc(Cl)cc(S(=O)(=O)C(F)(F)F)c1 (stereo not shown) [Example I-019] | 100% | 100% | – | 100% | 100% | 80 to 100% | 80 to 100% | 90 to 100% | 100% | 100% | 100% | 100% | 100% | 80 to 100% | mortality at 4 ppm (Myzus persicae [2]): 100%; mortality at 4 mg/m2 [4]: 80 to 100% |
| CC(c1ncnn1-c1ncccn1)N(CC1CC1)C(=O)c1csc(Cl)c1 (stereo not shown) [Example I-021] | 100% | – | 80% | 80% | 100% | – | – | – | – | – | – | – | – | – | – |
| CC(c1ncnn1-c1ncccn1)N(CC1CC1)C(=O)c1cc(C(F)(F)F)n(C)n1 (stereo not shown) [Example I-025] | 100% | 100% | – | 100% | 100% | 80 to 100% | – | 90 to 100% | 100% | 100% | 83% | 100% | – | 80 to 100% | mortality at 4 mg/m2 [6]: 85 to 100%; mortality at 20 mg/m2 [6]: 85 to 100% |
| CC(NC(=O)c1cc(Cl)cc(S(C)(=O)=O)c1)c1ncnn1-c1ncccn1 (stereo not shown) [Example I-037] | – | – | – | – | – | – | – | – | – | – | – | – | – | – | efficacy (fleas dead or moribund) (Ctenocephalides felis [1]): 100%; efficacy (ticks dead or moribund) (Rhipicephalus sanguineus): 80%; efficacy (infertile eggs) (Boophilus microplus): 100%; efficacy (seedlings grown) (Diabrotica balteata): 100% |
| CC(NC(=O)c1cc(F)cc(C2CC2)c1)c1ncnn1-c1ncccn1 (stereo not shown) [Example I-045] | – | – | – | – | – | – | – | – | – | – | – | – | – | – | efficacy (fleas dead or moribund) (Ctenocephalides felis [1]): 100%; efficacy (ticks dead or moribund) (Rhipicephalus sanguineus): 100%; efficacy (infertile eggs) (Boophilus microplus): 100%; mortality (Nilaparvata lugens; 500 g/ha, rice plants, after 4 days): 90%; efficacy (seedlings grown) (Diabrotica balteata): 100% |
| C[C@@H](NC(=O)c1cc(OC(F)(F)F)cc(C2CC2)c1)c1ncnn1-c1ccc(C#N)cn1 [Example I-053] | – | – | 100% | – | 100% | – | 80 to 100% | 90 to 100% | – | – | – | 100% | 100% | 80 to 100% | mortality at 4 mg/m2 ([7]; surface concentration 4 mg/m^2, 30 minutes exposure): 80 to 100% |
| CSc1cc(Cl)cc(C(=O)N[C@H](C)c2ncnn2-c2ccc(C#N)cn2)c1 [Example I-066] | 100% | – | 80% | – | 100% | 80 to 100% | 80 to 100% | 90 to 100% | – | 100% | – | 100% | 100% | 80 to 100% | mortality at 500 g/ha (Myzus persicae [8]): 90%; mortality at 4 ppm (Myzus persicae [2]): 90%; mortality at 4 mg/m2 [4]: 80 to 100%; mortality at 4 mg/m2 [6]: 85 to 100%; mortality at 20 mg/m2 [6]: 85 to 100% |
